From the supplement of paper PMC10307832

Assays:
Experiment in all cases: relative viability (nuclei count vs DMSO), 5 days (fraction); higher = more cells survive
XMD13-2 + Vorinostat = compound: C1CC1C(=O)NC2=NNC3=C2C=CC(=C3)C4=CC(=CC=C4)C(=O)NC5CC5 [XMD13-2] + O=C(CCCCCCC(=O)Nc1ccccc1)NO [Vorinostat] (partner 1 µM)
Summary of the method: (§1)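 Dosing by pin tool came one day after lung cancer cell lines were seeded in 1536-well plates, using either one drug or a fixed anchor-drug dose plus five library-drug doses (not always all listed) in √10 steps. After 5 days, nuclei were counted on 4× images. Relative viability is treated-well nuclei count divided by vehicle-well nuclei count, and values are medians of duplicate plates.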

XMD13-2 + Trametinib = compound: C1CC1C(=O)NC2=NNC3=C2C=CC(=C3)C4=CC(=CC=C4)C(=O)NC5CC5 [XMD13-2] + CC(=O)Nc1cccc(-n2c(=O)n(C3CC3)c(=O)c3c(Nc4ccc(I)cc4F)n(C)c(=O)c(C)c32)c1 [Trametinib] (partner 0.02 µM)
Summary of the method: as §1

ALW-II-49-7 + Navitoclax = compound: Cc1ccc(C(=O)Nc2cccc(C(F)(F)F)c2)cc1Nc1cncc(C(N)=O)c1 [ALW-II-49-7] + CC1(C)CCC(c2ccc(Cl)cc2)=C(CN2CCN(c3ccc(C(=O)NS(=O)(=O)c4ccc(N[C@H](CCN5CCOCC5)CSc5ccccc5)c(S(=O)(=O)C(F)(F)F)c4)cc3)CC2)C1 [Navitoclax] (partner 0.5 µM)
Summary of the method: as §1

ALW-II-49-7 = compound: Cc1ccc(C(=O)Nc2cccc(C(F)(F)F)c2)cc1Nc1cncc(C(N)=O)c1 [ALW-II-49-7]
Summary of the method: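 Lung cancer cell lines in 1536-well plates were exposed by pinning to five library-drug doses (not always all listed) √10 apart, following an overnight hold at 37 °C. MetaXpress counted Hoechst-stained nuclei from 4× images taken after 5 days without medium change. Viability is the median ratio of treated-well to vehicle-well nuclei across plates. Plates required control CV below 25% and at least one doubling.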

Cell Line	relative viability (XMD13-2 + Vorinostat; first compound 0.05 µM)	relative viability (XMD13-2 + Vorinostat; first compound 0.1581 µM)	relative viability (XMD13-2 + Vorinostat; first compound 0.5 µM)	relative viability (XMD13-2 + Vorinostat; first compound 1.581 µM)	relative viability (XMD13-2 + Vorinostat; first compound 5 µM)	relative viability (XMD13-2 + Trametinib; first compound 0.05 µM)	relative viability (XMD13-2 + Trametinib; first compound 0.1581 µM)	relative viability (XMD13-2 + Trametinib; first compound 0.5 µM)	relative viability (XMD13-2 + Trametinib; first compound 1.581 µM)	relative viability (XMD13-2 + Trametinib; first compound 5 µM)	relative viability (ALW-II-49-7 + Navitoclax; first compound 0.08 µM)	relative viability (ALW-II-49-7 + Navitoclax; first compound 0.253 µM)	relative viability (ALW-II-49-7 + Navitoclax; first compound 0.8 µM)	relative viability (ALW-II-49-7 + Navitoclax; first compound 2.53 µM)	relative viability (ALW-II-49-7 + Navitoclax; first compound 8 µM)	relative viability (ALW-II-49-7; 0.08 µM)	relative viability (ALW-II-49-7; 0.253 µM)	relative viability (ALW-II-49-7; 0.8 µM)	relative viability (ALW-II-49-7; 2.53 µM)	relative viability (ALW-II-49-7; 8 µM)
201T	0.997	1.04	1.05	0.981	1.04	0.712	0.748	0.736	0.703	0.783	1.18	1.22	1.21	1.27	1.23	0.979	1.04	0.915	1.02	0.838
A549											1.2	1.21	1.33	1.15	1.21	1.08	0.966	0.891	1.02	0.947
A-427	0.927	0.852	0.862		0.705	0.795	0.649	0.755		0.581	1.07	0.942	0.998	0.994	1.05	0.962	1.02	0.952	1.01	0.93
ABC-1	1.3	0.979	1.03		0.774											0.938	0.999	0.923	0.973	0.941
BEN	0.625	0.543	0.585	0.574	0.487	1.11	1	1.21	0.991	1.07	0.111	0.0965	0.0694		0.0797	1.04	1.01	0.728	0.825	0.902
CAL-12T	0.76	0.652	0.792	0.71	1.06	0.465	0.399	0.332	0.317	0.307	1.15	1.08	1.2	1.42	1.17	0.952	0.96	1.03	1.02	0.928
COR-L23	0.58	0.566	0.737	0.368	0.544	0.611	0.591	0.684	0.552	0.626	1.14	0.954	1.04	0.805	1.27	1.05	0.969	0.904	0.892	1.02
COR-L 105	0.781	0.929	1.01	0.79	0.847	0.423	0.466	0.432	0.476	0.393	0.812	0.669	0.767	0.721	0.655	0.822	1.05	0.968	0.942	0.893
Calu-6											0.814	0.84	0.731	0.591	0.636	0.952	1.03	0.947	0.891	0.869
ChaGo-K-1	0.789	0.635	0.837	0.7	0.716	0.937	0.89	0.959	0.847	0.835	0.931	1.45	1.27	1.29	0.753	1.03	0.96	0.909	0.974	1.01
EBC-1											0.403	0.377	0.348	0.321	0.277	0.93	0.93	0.79	1	0.697
EKVX	0.785	0.625	0.758	0.661	0.702	0.383	0.341	0.248		0.299	0.942	0.888	0.832	0.502	1.08	1.06	0.953	0.968	0.91	0.974
EMC-BAC-2	0.502	0.43	0.438		0.36	0.986	0.893	0.824		0.805	0.972	1.19	1.18	1.01	1.07	1.02	0.966	0.888	0.902	0.758
EPLC-272H	0.474	0.473	0.374	0.33	0.0998	0.289	0.311	0.301	0.257	0.271	1.16	1.03	1.04	1.06	1.19	1.01	0.702	0.945	0.977	0.86
H3255	0.839	0.716	0.746		0.662	0.749	0.66	0.556		0.475	0.581	0.541	0.375	0.313	0.538	1.12	0.999	1.04	0.904	0.808
HARA	0.555	0.484	0.536	0.578	0.372	0.667	0.948	1.16	0.776	0.674	1.22	1.07	1.13	1.15	1.22	0.87	0.777	0.987	1.17	0.846
HCC-15	0.971	0.862	0.957	0.764	0.823	0.353	0.351	0.428	0.363	0.344	0.768	0.772	0.695	0.824	0.729	1.04	0.975	0.964	1.08	0.919
HCC-44	1.11	1.17	1.21	1.09	1.09	1.2	1.04	1.17	1.05	1.05	1.12	0.958	0.988	0.891	1.06	0.971	1.06	0.969	1.03	0.957
HCC-78	0.481	0.489	0.454	0.445	0.413	0.842	0.71	0.834	0.833	0.792	1.01	0.682	0.787	0.744	0.641	0.972	0.938	0.842	0.934	0.933

Cell Line	relative viability (XMD13-2 + Vorinostat; first compound 0.05 µM)	relative viability (XMD13-2 + Vorinostat; first compound 0.1581 µM)	relative viability (XMD13-2 + Vorinostat; first compound 0.5 µM)	relative viability (XMD13-2 + Vorinostat; first compound 1.581 µM)	relative viability (XMD13-2 + Vorinostat; first compound 5 µM)	relative viability (XMD13-2 + Trametinib; first compound 0.05 µM)	relative viability (XMD13-2 + Trametinib; first compound 0.1581 µM)	relative viability (XMD13-2 + Trametinib; first compound 0.5 µM)	relative viability (XMD13-2 + Trametinib; first compound 1.581 µM)	relative viability (XMD13-2 + Trametinib; first compound 5 µM)	relative viability (ALW-II-49-7 + Navitoclax; first compound 0.08 µM)	relative viability (ALW-II-49-7 + Navitoclax; first compound 0.253 µM)	relative viability (ALW-II-49-7 + Navitoclax; first compound 0.8 µM)	relative viability (ALW-II-49-7 + Navitoclax; first compound 2.53 µM)	relative viability (ALW-II-49-7 + Navitoclax; first compound 8 µM)	relative viability (ALW-II-49-7; 0.08 µM)	relative viability (ALW-II-49-7; 0.253 µM)	relative viability (ALW-II-49-7; 0.8 µM)	relative viability (ALW-II-49-7; 2.53 µM)	relative viability (ALW-II-49-7; 8 µM)
HCC-366	0.439	0.291	0.386	0.379	0.399	0.413	0.334	0.412	0.286	0.331	1.04	1.29	1.08	1.11	1.11	1.03	1.05	1.09	1.04	0.855
HCC-827	0.838	0.937	0.956	0.765	1.06	0.611	0.502	0.528	0.49	0.473	0.981	1.05	1.08	1.01	0.987	1.02	1.03	1.02	1.02	1.02
HOP-62	0.612	0.587	0.658	0.694	0.537	0.397	0.4	0.443	0.426	0.407	1.03	0.866	1.02	0.485	0.67	1.1	1.03	0.941	0.82	0.786
IA-LM	0.954	1.05	0.96		0.718						0.84	0.551	0.689	0.213	0.0967	0.939	0.74	0.744	0.504	0.305
LC-2-ad	0.721	0.703	0.717	0.696	0.722	0.934	0.938	0.961	0.936	0.93	0.445	0.463	0.37	0.341	0.42	0.942	1.03	0.922	1.08	0.861
LCLC-97TM1	0.769	0.551	0.747	0.532	0.301	0.225	0.198	0.217	0.17	0.179	0.628	0.334	0.57	0.131	0.431	0.97	0.905	1.09	0.755	0.865
LCLC-103H	0.891	0.83	0.817	0.696	0.751	0.66	0.677	0.742	0.738	0.76						0.983	0.987	0.971	0.953	0.969
NCI-H358	0.751	0.687	0.692	0.489	0.442	0.128	0.127	0.132	0.13	0.135						0.891	0.956	0.924	1.01	1.07
NCI-H522	0.856	0.873	0.805	0.982	0.907	0.852	0.688	0.82	0.711	0.759						0.968	0.938	0.994	1.2	1.03
NCI-H650	0.526	0.416	0.46	0.348	0.497	1.37	1.02	1.05	0.917	0.991						0.992	0.997	0.841	1.03	0.647
NCI-H661	0.811	0.75	0.75	0.825	0.563	0.538	0.614	0.665	0.615	0.409						1.04	0.936	0.927	0.975	0.901
NCI-H1299											1.03	1.08	1.05	1.07	0.968	1.05	1.05	0.938	0.921	0.843
NCI-H1563																0.962	0.993	0.957	0.941	0.887
NCI-H1623																0.934	0.903	0.947	0.967	0.91
NCI-H1648	0.733		0.42	0.391	0.459	0.526		0.454	0.55	0.374						0.633	0.839	0.676	0.683	0.797
NCI-H1703											1.02	1.08	0.964	0.406	0.291	0.982	0.981	0.734	0.429	0.434
NCI-H1792						0.549	0.454	0.475	0.509	0.507	0.351	0.438	0.725	0.654	0.327	0.679	0.873	0.915	0.73	0.654
NCI-H2342	0.741	0.736	0.831	0.687	0.773	0.766	0.917	0.697	0.912	0.822						0.866	1.04	0.98	0.925	0.951
SW 900	0.721	0.42	0.501	0.45	0.623	0.924	0.943	0.993	0.859	0.881						0.826	0.975	0.736	1.03	0.622
